# Patent US20060039937A1, “Composition having antioxidant properties” (priority 2003, published 2006)
# “Also recorded” adds a separate entry of the source.
# Legend:
# [1] = DPPH assay (free-radical scavenging); type: biochemical; conditions: for AE (×10^−3): anti-free-radical efficiency from EC50 and TEC50; for TEC50: reaction time necessary to achieve EC50; for DPPH free-radical scavenging: amount of antioxidant (in mg) needed to inhibit 1 mmol of DPPH; for antioxidative action (DPPH test), in words: comparison with vitamin C
# Protocol: In the presence of a free-radical scavenger, the electron is paired, the absorption disappears, and the decoloration proceeds stoichiometrically taking into account the electrons taken up. The absorbance is measured in a photometer, The anti-free-radical property of the substance to be tested is determined by measuring the concentration at which 50% of the 2,2-diphenyl-1-picrylhydrazyl employed has reacted with the free-radical scavenger. This concentration is expressed as EC50, a value which can be considered to be a property of the substance under the given measurement conditions. […] The EC50 value here is a measure of the capacity of the respective compound to scavenge free radicals. The lower the EC50 value, the higher the capacity to scavenge free radicals. […] A further important aspect for the action of the antioxidants is the time in which this EC50 value is reached. This time, measured in minutes, gives the TEC50 value, which allows a conclusion to be drawn on the rate at which these antioxidants scavenge free radicals. The anti-free-radical efficiency (AE) (described in C. Sanchez-Moreno, J. A. Larrauri and F. Saura-Calixto in J. Sci. […] Aliquots of this solution are mixed with various concentrations of the compound to be tested. […] The lower this value, the higher the corresponding antioxidant activity. The reaction time necessary to achieve this value is indicated in the value TEC50 (in minutes). The anti-free-radical efficiency (AE) is obtained from this in accordance with the following relationship: [formula] A higher AE value here indicates a higher activity against free radicals.
# [2] = Lipid assay (ABAP-induced oxidation of linoleic acid in SDS micelles); type: biochemical; conditions: for Standardised to tocopherol (relative antioxidative efficiency, RAE): % inhibition standardised to tocopherol; for AE/20 min: absorbance change at 236 nm, Reference 0.4567; for % inhibition: inhibition of linoleic acid oxidation versus reference; for Lipid test: comparative experiment, standardised to tocopherol
# Protocol: ABAP, which is water-soluble per se, is dispersed in SDS micelles. Linoleic acid (cis,cis-9,12-octadecadienoic acid) is likewise dispersed in SDS micelles. The free radicals cause the oxidation of linoleic acid to the isomer having conjugated double bonds. The formation of the conjugated double bond can be determined through the increase in the absorbance at 236 nm. The ability of the antioxidant to inhibit the rate of formation is determined relative to the tocopherol standard (in accordance with: Pryor, W. A., Cornicelli, […]., & Wu, M. (1993) A rapid screening test to determine the antioxidant potencies of natural and synthetic antioxidants. J Org Chem, 58, 3521-3532).
# [3] = Hypoxanthine-xanthine oxidase test (superoxide scavenging, NBT reduction); type: biochemical; conditions: value at which 50% of the original superoxide free-radical anion concentration is still present
# Protocol: Superoxide Free-Radical Anion Scavenging Efficiency of ASG I (Hypoxanthine-Xanthine Oxidase Test) Reaction of fresh xanthine oxidase with hypoxanthine in the presence of EDTA in aqueous solution gives superoxide free-radical anions. The free-radical anions are determined spectrophotometrically via the reduction of nitroblue tetrazolium (NBT) to nitroblue diformazan. The reduction is evident from the […] in the absorption band at 560 nm. […] The IC50 is the value at which 50% of the original superoxide free-radical anion concentration is still present. The lower this value, the higher the corresponding antioxidant activity.
# [4] = Time dependence of the antioxidative activity (DPPH test after storage); conditions: 1 mol % solution in EtOH:H2O 1:1, storage for 90 days at 40° C.
# [5] = TEAC assay (ABTS radical cation decolorisation); type: biochemical; conditions: comparative experiment with starting substances
# Protocol: This free-radical cation has absorption maxima at 645 nm, 734 nm and 815 nm. The addition of an antioxidant to the ABTS free-radical cation results in reduction to ABTS. The magnitude of this conversion depends on the activity and concentration of the antioxidant and on the duration of the reaction. The reduction is evident from the decrease in absorbance, and the percentage of reduced ABTS is determined as a function of concentration and time and calculated relative to the reactivity of trolox (TEAC). […] This method can be used for the determination of antioxidants which are soluble in water or organic solvents (according to: Re, […]., Yang, M., & Rice, E. C. (1999) Antioxidant activity applying an improved ABTS radical cation decolorisation assay. Free Radical Biology and Medicine, 26, 1231-1237). The absorbance values measured after six minutes are used. The percentage of reduced ABTS is plotted against the concentration of the active ingredient (ASG I from Example 1 or trolox), and the slope of the lines is determined. In order to determine the TEAC value of ASG I, […].
# [6] = Rancimat assay (oxidation stability of soya oil); conditions: for Protection factor: 0.1% by weight in 4 g of soya oil at 120° and 15 l of air/h
# Text: The Rancimat method for determination of the oxidation stability of fats and oils is known from the literature (Läubli M. W., Bruttel P. A.: “Determination of the oxidation stability of fats and oils—comparison between the active oxygen method (AOCS Cd 12-57) and the Rancimat method”, Fat. Sci. Technol. 90; 56-58 (1988); or Metrohm “Application Bulletin” Metrohm, No. 232/1 d, “Determination of the antioxidant activity by the Rancimat method”; handbook: “Rancimat 679”, Metrohm, instrument for the determination of oxidation and thermal stability, use instructions 8.679.1001, Metrohm AG, CH-9100 Herisau (Switzerland)).
# [7] = Storage stability / hydrolysis of ASG I in EtOH:H2O solution; type: physicochemical
# Protocol: The reducing action of each substance (DPPH test) as a function of time is investigated and expressed as the amount of substance in mg required to inhibit 1 mmol of the DPPH free radical (FIG. 1).
# Under storage conditions (90 days at 40° C., 1 mol-percent solution in EtOH:H2O), only 50% of the initial concentration of ASG I is retained after 30 days.
# [8] = test described in Gan, Seib 1998; cited from earlier work
# tyrosinase = test: Tyrosinase activity test with substrate L-tyrosine; type: biochemical; conditions: tyrosinase 10 units, L-tyrosine 4 mM, 37° C., 1 hour, OD 450 nm
# Protocol: Tyrosinase is the key enzyme in the synthesis of melanin. Substances which inhibit tyrosinase activity are therefore suitable as skin-lightening active ingredients. The action is also investigated with L-tyrosine as substrate and compared with that of reference substances. The substances and tyrosinase (10 units) are pre-incubated on ice for 10 minutes; tyrosine is then added (final concentration 4 mM), and the plates are incubated at 37° C. for 1 hour. The optical density at each test point is measured at 450 nm against the corresponding control without enzyme.
# [9] = no shift in absorbance of the complex induced by N3^−
compound,measurement,setting,value
"Cc1c(C)c2c(c(C)c1O)CCC(C)(CCCC(C)CCCC(C)CCCC(C)C)O2 (centres unmarked) [Tocopherol, reference compound]",AE (×10^−3),[1],64.1 ×10^−3
same,TEC50,[1],<60 min
same,"Standardised to tocopherol (relative antioxidative efficiency, RAE)",[2],1.00
same,AE/20 min,[2],0.0242
same,% inhibition,[2],94.7%
"O=C1O[C@H]([C@@H](O)CO)C(O)=C1O [Vitamin C, ascorbic acid, reference compound]",DPPH free-radical scavenging,[1],102 mg
same,AE (×10^−3),[1],61.72 ×10^−3
same,TEC50,[1],<60 min
same,IC50,[3],25.5 µg/mL
same,antioxidative action after storage (DPPH test),[4],lose their antioxidative action
same,Lipid test,[2],0.09
same,TEAC,[5],1
"O=C1O[C@H]([C@@H](O)COC(=O)c2ccc(O)c(O)c2)C(O)=C1O [Substance 3, L-ascorbyl 6-O-(3,4-dihydroxy)benzoate]",DPPH free-radical scavenging,[1],56 mg
same,"antioxidative action (DPPH test), in words",[1],great antioxidative action
"O=C(O)c1cc(O)c(O)c(O)c1 [Gallic acid, reference compound]",Lipid test,[2],0.37
same,TEAC,[5],2.76
"COc1ccc(C(=O)OC[C@H](O)[C@H]2OC(=O)C(O)=C2O)cc1 [Substance 5, L-ascorbyl 6-O-(4-methoxy)benzoate]",DPPH free-radical scavenging,[1],161 mg
same,"antioxidative action (DPPH test), in words",[1],virtually the same reducing action as vitamin C
"O=c1c(O)c(-c2ccc(O)c(O)c2)oc2cc(O)cc(O)c12 [3,5,7,3′,4′-Pentahydroxyflavone, reference compound]",AE (×10^−3),[1],83 ×10^−3
same,TEC50,[1],120 min
"O=C1O[C@H]([C@@H](O)COC(=O)c2cccc(O)c2)C(O)=C1O [Substance 6, L-ascorbyl 6-O-(3-hydroxy)benzoate]",DPPH free-radical scavenging,[1],193 mg
"Cc1c(C)c2c(c(C)c1O)CCC(C)(CCCC(C)CCCC(C)CCCC(C)C)O2 (centres unmarked) [Vitamin E, reference compound]",Protection factor,[6]; substance added pure,0.94
"O=C1O[C@H]([C@@H](O)COC(=O)c2cc(O)c(O)c(O)c2)C(O)=C1O [ASG I, L-ascorbyl 6-gallate]",DPPH free-radical scavenging,[1],54 mg
same,AE (×10^−3),[1],69.4 ×10^−3
same,"antioxidative action (DPPH test), in words",[1],significantly greater antioxidative action than vitamin C or derivatives thereof
same,TEC50,[1],180 min
same,Protection factor,[6]; dissolved in ethanol,3.07
same,Protection factor,[6]; substance added pure,1.22
same,solubility in soya oil,"[6]; pure substance in soya oil, Rancimat test",only dissolves partially
same,IC50,[3],9.3 µg/mL
same,initial concentration retained,"[7]; 1 mol-percent solution in EtOH:H2O, 40° C., after 30 days",50%
same,"stability, in words",[7]; pure substance versus aqueous solution,stable as the pure substance; also recorded: undergo hydrolysis in aqueous solution
same,"effectiveness as antioxidant, in words",[8],"less effective than propyl gallate, but more effective than L-ascorbic acid or L-ascorbyl palmitate"
same,IC50,tyrosinase,0.109 mM
same,antioxidative action after storage (DPPH test),[4],retained
same,"Standardised to tocopherol (relative antioxidative efficiency, RAE)",[2],0.69
same,activity relative to tocopherol,[2]; RAE expressed as percent of the activity of tocopherol,69%
same,AE/20 min,[2],0.1594
same,Lipid test,[2],0.69
same,% inhibition,[2],65.1%
same,complex formation with Fe^3+,[9],strong complex-forming properties
same,TEAC,[5],3.65
"O=C1O[C@H]([C@@H](O)COC(=O)c2ccc(O)cc2)C(O)=C1O [Substance 4, L-ascorbyl 6-O-(4-hydroxy)benzoate]",DPPH free-radical scavenging,[1],185 mg
same,"antioxidative action (DPPH test), in words",[1],virtually the same reducing action as vitamin C
"COc1cccc(C(=O)OC[C@H](O)[C@H]2OC(=O)C(O)=C2O)c1 [Substance 7, L-ascorbyl 6-O-(3-methoxy)benzoate]",DPPH free-radical scavenging,[1],>1000 mg
"O=C1O[C@H]([C@@H](O)CO)C([O-])=C1OP(=O)([O-])[O-].O=C1O[C@H]([C@@H](O)CO)C([O-])=C1OP(=O)([O-])[O-].[Mg+2].[Mg+2].[Mg+2] [MAP, magnesium ascorbyl phosphate, reference compound]",DPPH free-radical scavenging,[1],>1000 mg
same,IC50,tyrosinase,33.1 mM
"COc1cc(C(=O)OC[C@H](O)[C@H]2OC(=O)C(O)=C2O)cc(OC)c1O [Substance 2, L-ascorbyl 6-O-(4-hydroxy-3,5-dimethoxy)benzoate]",DPPH free-radical scavenging,[1],185 mg
same,"antioxidative action (DPPH test), in words",[1],virtually the same reducing action as vitamin C
"CCCCCCCCCCCCCCCC(=O)OC[C@H](O)[C@H]1OC(=O)C(O)=C1O [Ascorbyl palmitate, 6-ascorbyl palmitate, reference compound]",DPPH free-radical scavenging,[1],211 mg
same,Protection factor,[6]; substance added pure,2.01
same,antioxidative action after storage (DPPH test),[4],lose their antioxidative action
Cc1c(C)c2c(c(C)c1O)CCC(C)(C(=O)O)O2 (centres unmarked) [Trolox],IC50,[3],388 µg/mL
